Results taken from US10766873B2, “Zuclopenthixol hydrochloride derivatives and Ebselen derivatives as ErbB2 inhibitors” (Centre National de la Recherche Scientifique (CNRS), priority 2016, dated 2020).

What was measured:
[1] = molecular target: T1, FERM/CD44 interaction (Homo sapiens, UniProt P16070); experiment: AlphaScreen counter screen, FERM/CD44 interaction; format: binding; conditions: 1 h
T1 construct: the juxtamembrane region of CD44 (biotin-[…]); made in house
Text: To validate that the Zuclopenthixol hydrochloride (ZU) and its derivatives interact with the juxtamembrane domain of ErbB2, we first analyzed in AlphaScreen® their efficiency to inhibit FERM/ErbB2 interaction in a dose-dependent manner and determined IC50 value. Furthermore, to test the selectivity of those compounds, we tested their ability to disrupt the interaction between the FERM domain and the known ERM binding motif contained in the juxtamembrane region of CD44 as a control.
AlphaScreen® technology was used to assess the interaction between the Ezrin binding motif (EBM) contained in the juxtamembrane portions of ErbB2 or CD44 with the Ezrin FERM domain. For this purpose the Ezrin FERM domain in fusion with Glutathione-S-Transferase (GST) has been coupled to GSH-coated acceptor beads. Biotinylated ErbB2 peptide encoding the Ezrin binding motif (amino acid 674 to 689: biotin-[…], 26 aa) or the juxtamembrane region of CD44 (biotin-[…]), for the counter screen have been synthesized and coupled to streptavidin-covered donor beads. […]
The reaction was performed using white 384-well Optiplates (PerkinElmer, Whalham, Mass., USA) in 20 μl (total reaction volume) in a reaction buffer containing PBS, pH 7.4, 5 mM MgCl2 and 0.02% CHAPS. […] Light signal was detected with the EnVision® multilabel plate reader (PerkinElmer). […]

[2] = tested on: SKBR3; experiment: MTT cell proliferation, SKBR3; format: cell-based, human
Procedure: (§1) We then analyzed the ability of ZU and EB1 and their derivatives to decrease the ErbB2-dependent cell proliferation.
(§2) SKBR3, BT474, MCF-7, MDA-MB-231 and HBMEC cells were treated with the compounds as indicated, and cell proliferation was determined each day during 3 days using an MTT assay. Non treated cells were included as a negative control.
A solution of ZU in cis conformation was mixed to a solution of ZU in trans conformation (1:1) to obtain ZU in a 50/50 cis/trans conformation and their respective effects on ErbB2 activation and ErbB2-dependent cell proliferation were analyzed as previously by dot blot analysis using an anti-phosphotyrosine antibody (clone 4G10) and by MTT assays in the ErbB2-overexpressing breast cancer cell line SKBR3, BT474, or HBMEC as a control.

[3] = tested on: HBMEC; experiment: MTT cell proliferation, HBMEC control cells; format: cell-based, human
Procedure: as §1, §2
(§3) The WT, V777L or V842I ErbB2-transfected cells were treated with 5 or 10 μM of ZU and cell proliferation was determined each day during 3 days using an MTT assay. Non transfected cells were included as a negative control.
(§4) The WT, V777L or V842I ErbB2-transfected cells were treated with 5 or 10 μM of EB1 and cell proliferation was determined each day during 3 days using an MTT assay. Non transfected cells were included as a negative control.

[4] = tested on: MCF7; experiment: MTT cell proliferation, MCF7; format: cell-based; conditions: 10 μM
Procedure: as §1, §2

[5] = tested on: SKBR3; experiment: Soft agar colony formation, SKBR3; format: cell-based, human; conditions: 5 or 10 μM, 6 weeks
Procedure: A bottom layer of 0.8% agarose in DMEM supplemented with 20% SVF and penicillin/streptomycin was added to 24 well plates before seeding 25.10^3 SKBR3 or BT474 cells/well in a 0.6% agarose top layer. Cells were left untreated or treated with 5 or 10 μM ZU or EB1 or 5 μM AG1478 (a non-specific ErbB2 kinase inhibitor) as a positive control. Treatments were renewed 3 times a week. After 6 weeks, the number of colonies and their size were quantified using image J software. The colony formation is illustrated for each condition. Data are presented as mean±SEM.

[6] = tested on: human breast cancer BT474 cells; experiment: BT474 orthotopic xenograft in mammary fat pad of mice; format: in vivo, NOD.Cg-Prkdc scid/J mice; conditions: for tumor growth in vivo (in words): then once per day 3 days
Procedure: 5.10^6 BT474 cells were implanted orthotopically in the mammary fat pad of NOD.Cg-Prkdc scid/J mice, in the presence of estradiol supplement. After 4 weeks, mice were injected with ZU (N=10, 5 mg/kg per day for 5 days a week, followed by 3 mg/kg for 5 days a week during three weeks for N=6) or vehicle (N=10, 10% DMSO in PBS). Mice weight and tumor volume were measured 3 and 2 times a week respectively.
5.10^6 BT474 cells were implanted orthotopically in the mammary fat pad of NOD.Cg-Prkdc scid/J mice, in the presence of estradiol supplement. Nineteen days after implantation, treatment began and mice were injected i.p. with […] ZU (5 mg/kg per day for 3 days a week, during three weeks for N=9), 4 mg/kg ZU (5 days a week during three weeks, N=8) or vehicle (N=9, 10% DMSO in PBS). Mice weight and tumor volume were measured 3 and 2 times a week respectively.
5.10^6 BT474 cells were implanted orthotopically in the mammary fat pad of NOD.Cg-Prkdc scid/J mice, in the presence of estradiol supplement. After 4 weeks, mice were injected with EB1 3 mg/kg (N=8), 5 mg/kg (N=6) or vehicle (N=8, 10% DMSO in PBS) twice a day for 5 days a week (2×D), during 2 weeks then once per day (1×D) during 3 days. Mice weight and tumor volume were measured 3 and 2 times a week respectively.

[7] = tested on: WT ErbB2-transfected cells; experiment: MTT cell proliferation, WT ErbB2-transfected HBMEC; format: cell-based; conditions: day 3
Procedure: as §3, §4

SMILES: O=C1c2ccccc2[Se](=O)N1c1ccccc1 (stereo not drawn) [EB1, Ebselen oxide]
- effect on FERM/CD44 interaction [1]: without significantly altering FERM/CD44 interaction at low doses
- IC50 ([2]; Homo sapiens, SK-BR-3): 7.5 µM
- EC50 ([2]; Homo sapiens, SK-BR-3, 72 h, day 3, read-out: Cell proliferation at d 3 SKBR3 EC50): 7.4 µM
- Cell proliferation at d 3 SKBR3 Max inhibition, % ([2]; day 3): 96.7%
- effect on HBMEC proliferation (in words) ([3]; 10 μM): without any effect
- effect on proliferation of non-transfected HBMECs cells (in words) ([3]; 10 μM, day 3): no effect
- EC50 ([3]; Homo sapiens, 72 h, read-out: Cell proliferation at d 3 HBMEC EC50, μM): 99.2 µM
- Cell proliferation at d 3 HBMEC Max inhibition, % ([3]; day 3): 94.4%
- effect on MCF7 proliferation (in words) [4]: without any effect
- anchorage-independent growth of SKBR3 (in words) [5]: inhibited the anchorage-independent growth
- tumor growth in vivo (in words) ([6]; 3 mg/kg twice a day 5 days a week 2 weeks): able to decrease the tumor growth
- tumor growth in vivo (in words) ([6]; 5 mg/kg twice a day 5 days a week 2 weeks, tumor volume and tumor weight): more significant
- tolerability in mice, body weight (in words) ([6]; 3 or 5 mg/kg): well tolerated
- decrease of the proliferation of WT transfected HBMEC ([7]; 5 μM): 60%
- decrease of the proliferation of WT transfected HBMEC ([7]; 10 μM): 95%
